The values below come from US10081628B2, “Apoptosis-inducing agents for the treatment of cancer and immune and autoimmune diseases” (AbbVie Inc., priority 2013, dated 2018).

Like-named read-outs stand apart in the source and are kept apart here.

For assay [1], the system named is RS4;11 cells. Particulars: Blood, 2008, Vol. 111, 2300-2309; cited from earlier work.
Assay [2] has as its target GST-Bcl-2 (Homo sapiens, UniProt P10415). Briefly: TR-FRET Bcl-2 binding assay (F-Bak peptide probe). Particulars: GST-Bcl-2 1 nM, F-Bak peptide probe 100 nM, Tb-anti-GST 1 nM; Wang's equation; '<' = below limit of detection. The method, boiled down:
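Competitive TR-FRET displacement of F-Bak peptide probe from GST-Bcl-2 detected with Tb-anti-GST antibody; compounds serially diluted in DMSO from 50 μM (2× starting concentration). Mixtures incubated 3 h at room temperature, read at 340 nm excitation with 520 and 495 nm emission. Ki derived by Wang's equation.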
In general terms: In TR-FRET formats the signal depends on donor and acceptor labels being close together.

For assay [3], the system named is RS4;11 cells. Briefly: RS4;11 cell viability assay (CellTiter Glo). It is filed as cell-based. Particulars: 10% human serum, 48 hours. The method, boiled down:
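Cells seeded at 50,000 per well and exposed to compounds for 48 h at 37 C, 5% CO2 in the presence of 10% human serum. Viability read by CellTiter Glo; EC50 derived from percentage of viable cells versus untreated controls.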

For assay [4], the system named is lymphocytes. Briefly: Lymphocyte reduction in C57BL/6 mice. It is filed as in vivo. Particulars: Mus musculus, ip. The essentials: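 C57Bl/6 mice dosed intraperitoneally at 30 mg/kg daily for four days. Blood cell counts by hematology analyzer 24 hours after first and last doses; exposure (AUC) from samples at 1, 6, 10 and 24 hours after last dose.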
[5] abbreviates: 30 mg/kg intraperitoneal every day for four days, 24 hours after the last dose, read-out: Lymphocyte reduction % inh. day 4.
Setting [6] is: 30 mg/kg intraperitoneal every day, 24 hours after the first dose, read-out: Lymphocyte reduction % inh. day 1.

GST-Bcl-2, sequence (P10415 whole entry): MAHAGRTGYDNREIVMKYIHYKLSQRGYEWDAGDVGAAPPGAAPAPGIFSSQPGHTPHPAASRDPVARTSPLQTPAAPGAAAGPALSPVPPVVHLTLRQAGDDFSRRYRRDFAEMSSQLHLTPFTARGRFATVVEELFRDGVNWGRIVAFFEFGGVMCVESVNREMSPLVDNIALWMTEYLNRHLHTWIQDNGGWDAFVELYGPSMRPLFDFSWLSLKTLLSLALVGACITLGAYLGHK

With `CN(C)CC[C@H](CSc1ccccc1)Nc1ccc(S(=O)(=O)NC(=O)c2ccc(N3CCN(Cc4ccccc4-c4ccc(Cl)cc4)CC3)cc2)cc1[N+](=O)[O-]` [ABT-737, N-(4-(4-((4′-chloro(1,1′-biphenyl)-2-yl)methyl)piperazin-1-yl)benzoyl)-4-(((1R)-3-(dimethylamino)-1-((phenylsulfanyl)methyl)propyl)amino)-3-nitrobenzenesulfonamide], the “sensitivity of RS4;11 cells to the Bcl-2 family member inhibitor” value in assay [1] was “sensitive”.

What is called Ki is a dissociation constant, usually derived from enzyme kinetics or from competition with a known ligand. Higher therefore signals weaker binding. A word on the EC50: it is the concentration that produces a half-maximal response. Lower therefore signals a more potent agent. `CC1(C)CCC(CN2CCN(c3ccc(C(=O)NS(=O)(=O)c4ccc(NC[C@H]5COCC(C)(C)O5)c([N+](=O)[O-])c4)c(Oc4cnc5[nH]ccc5c4)c3)CC2)=C(c2ccc(Cl)cc2)C1` [Example 37, 4-(4-{[2-(4-chlorophenyl)-4,4-dimethylcyclohex-1-en-1-yl]methyl}piperazin-1-yl)-N-{[4-({[(2S)-6,6-dimethyl-1,4-dioxan-2-yl]methyl}amino)-3-nitrophenyl]sulfonyl}-2-(1H-pyrrolo[2,3-b]pyridin-5-yloxy)benzamide] returned a Ki in assay [2] of less than 0.1 nM. The concentration giving a half-maximal response (EC50) in assay [3] amounted to 250 nM. Moreover, the inhibition at 30 mg/kg is 22% in assay [4] (setting [5]) and 28% in assay [4] (setting [6]).

For `C[C@@H]1CO[C@@H](CNc2ccc(S(=O)(=O)NC(=O)c3ccc(N4CCN(CC5=C(c6ccc(Cl)cc6)CC(C)(C)CC5)CC4)cc3Oc3cnc4[nH]ccc4c3)cc2[N+](=O)[O-])CO1` [Example 44, 4-(4-{[2-(4-chlorophenyl)-4,4-dimethylcyclohex-1-en-1-yl]methyl}piperazin-1-yl)-N-{[4-({[(2S,5R)-5-methyl-1,4-dioxan-2-yl]methyl}amino)-3-nitrophenyl]sulfonyl}-2-(1H-pyrrolo[2,3-b]pyridin-5-yloxy)benzamide], in assay [2], the Ki is less than 0.1 nM. In assay [3], this compound showed a concentration giving a half-maximal response (EC50) of 4.7 nM. Also, the inhibition at 30 mg/kg in assay [4] (setting [5]) is 60%; in assay [4] (setting [6]) it was 66%.

In turn, `CC1(C)CCC(CN2CCN(c3ccc(C(=O)NS(=O)(=O)c4ccc(NCC5(C#N)CCOCC5)c([N+](=O)[O-])c4)c(Oc4cnc5[nH]ccc5c4)c3)CC2)=C(c2ccc(Cl)cc2)C1` [Example 46, 4-(4-{[2-(4-chlorophenyl)-4,4-dimethylcyclohex-1-en-1-yl]methyl}piperazin-1-yl)-N-[(4-{[(4-cyanotetrahydro-2H-pyran-4-yl)methyl]amino}-3-nitrophenyl)sulfonyl]-2-(1H-pyrrolo[2,3-b]pyridin-5-yloxy)benzamide] had a Ki in assay [2] of less than 0.1 nM. The same compound came in with an EC50 in assay [3] of 6.9 nM. The inhibition at 30 mg/kg was 35% in assay [4] (setting [5]) and 46% in assay [4] (setting [6]).
